Measured values: patent US8586768B2, “Design, synthesis and functional characterization of rottlerin analogs” (priority 2009, dated 2013)
pIC50: −log10 of the molar value.

Columns and labels:
[1] = tested on: N27 cells; test: MPP+-induced DNA fragmentation in N27 cells; type: cell-based, rat; details: co-treated with 3 μM
Text: To determine whether PK analogs are neuroprotective against MPP+-induced increases in caspase-3 and DNA fragmentation, their effects on MPP+-induced increases in caspase-3 activity and DNA fragmentation, markers of apoptotic cell death, were examined. All three analogs PK101-103 protected N27 cells from MPP+-induced caspase-3 activation and DNA fragmentation. […] (**p<0.01 and ***p<0.001, compared to vehicle control; #p<0.05, ##p<0.01, compared to MPP+ treatment).

[2] = target: PKCδ (Homo sapiens, UniProt Q05655); details: background statement; cited from earlier work
PKCδ, sequence (Q05655 whole entry): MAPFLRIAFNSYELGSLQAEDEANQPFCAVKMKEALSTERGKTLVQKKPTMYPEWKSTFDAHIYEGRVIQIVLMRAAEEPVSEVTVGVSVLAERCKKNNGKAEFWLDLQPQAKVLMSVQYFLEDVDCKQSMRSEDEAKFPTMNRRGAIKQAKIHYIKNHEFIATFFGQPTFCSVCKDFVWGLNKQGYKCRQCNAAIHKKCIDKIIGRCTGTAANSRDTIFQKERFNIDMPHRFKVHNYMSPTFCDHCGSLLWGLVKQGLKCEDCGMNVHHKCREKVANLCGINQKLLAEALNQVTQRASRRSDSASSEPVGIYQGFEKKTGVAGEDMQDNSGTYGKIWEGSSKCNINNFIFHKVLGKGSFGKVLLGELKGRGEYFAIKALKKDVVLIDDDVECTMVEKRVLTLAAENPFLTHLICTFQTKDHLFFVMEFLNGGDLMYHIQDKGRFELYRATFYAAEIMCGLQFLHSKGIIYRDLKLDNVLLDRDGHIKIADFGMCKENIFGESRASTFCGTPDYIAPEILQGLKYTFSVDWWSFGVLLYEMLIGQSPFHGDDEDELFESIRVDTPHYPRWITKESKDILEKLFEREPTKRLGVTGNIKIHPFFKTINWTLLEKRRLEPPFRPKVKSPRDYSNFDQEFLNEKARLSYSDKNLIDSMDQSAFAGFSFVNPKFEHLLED

[3] = tested on: mouse primary mesencephalic neuronal cultures; test: 3H-dopamine uptake assay after MPP+ exposure; type: cell-based; details: 10 μM MPP+, 3 μM compound, 48 h
Method: Lead PK analogs protect against MPP^+-induced loss of TH+ neurons in primary mesencephalic cultures. To determine if lead PK analogs protect against degeneration of nigral dopaminergic neurons resulting from MPP+ neurotoxicity, mouse primary mesencephalic neuronal cultures (prepared from E16-18-day-old mice embryos) were exposed to 10 μM MPP^+ in the presence or absence of 3 μM of lead PK analogs, PK103, PK202, PK302 and parent compound rottlerin for 48 h, and then assessed the viability of dopaminergic neurons using the ^3H-dopamine uptake assay. (***p<0.005 (vehicle versus MPTP. ##p<0.01 (PK analogs versus MPTP)). Mazindol, a dopamine reuptake inhibitor, was used as a positive control for the assay.

SMILES	blockage of MPP+-induced DNA fragmentation [1]	pIC50 [2]	protection against MPP+-induced loss of dopaminergic neurons (dopamine uptake) [3]
Oc1cc(O)c(Cc2c(O)cc(O)cc2O)c(O)c1 [PK103]	significant blockage	–	–
CC(=O)c1c(O)c(C)c(O)c(Cc2c(O)c3c(c(C(=O)/C=C/c4ccccc4)c2O)OC(C)(C)C=C3)c1O [Rottlerin, (E)-1-[6-[(3-acetyl-2,4,6-trihydroxy-5-methylphenyl)methyl]-5,7-dihydroxy-2,2-dimethylchromen-8-yl]-3-phenylprop-2-en-1-one]	–	5.22 to 5.52	protected
